This experiment concerns the target T1, Nurr1 protein (Homo sapiens, UniProt P43354).
T1 construct: three kinds of plasmid DNAs, including a DNA comprising Nurr1-LBD and a DNA having β-galactosidase, were transfected into BE(2)C cells; expressed in transfected cells; host or cells: BE(2)C human neuroblastoma cells
Kind of experiment: Nurr1 luciferase reporter assay in BE(2)C cells transfected with Nurr1-LBD. Type of experiment: cell-based. Here is the method:
A gene comprising eight repeats of a nucleotide sequence (5′-CTCGGAGGACAGTACTCCG-3, SEQ ID NO: 1) to which GLA4 gene can bind was linked to the reporter gene luciferase to synthesize a vector. Then, three kinds of plasmid DNAs, including a DNA comprising Nurr1-LBD and a DNA having β-galactosidase, were transfected into BE(2)C cells, and after 6 hours, the cells were treated with 1-200 ppm of the Daphne genkwa extract. The treated cells were incubated in a 5% CO2 incubator at 37° C. for 20 hours, and then subjected to a luciferase assay (FIG. 1).
FIG. 1 is a graphic diagram showing the results of a luciferase assay conducted to examine the change in Nurr1 protein activity as a function of the concentration of the Daphne genkwa extract. As a control, 0.1% DMSO was used, and the increase in activity was expressed as folds of the activity of the control. […]
The effects of the Daphne genkwa extract fractions, obtained using various solvents in Example 2, on Nurr1 protein activity, were analyzed according to a method similar to the method described in Example 3. […]
According to a method similar to the method described in Example 3, the concentration dependences of the effects of genkwanine N and yuanhuacine on the activity of Nurr1 protein were analyzed, and the results of the analysis are shown in FIG. 5.
(In general: Reporter assays use an easily measured gene product as a stand-in for the process of interest.)

T1 sequence (P43354 360-595 limits assumed): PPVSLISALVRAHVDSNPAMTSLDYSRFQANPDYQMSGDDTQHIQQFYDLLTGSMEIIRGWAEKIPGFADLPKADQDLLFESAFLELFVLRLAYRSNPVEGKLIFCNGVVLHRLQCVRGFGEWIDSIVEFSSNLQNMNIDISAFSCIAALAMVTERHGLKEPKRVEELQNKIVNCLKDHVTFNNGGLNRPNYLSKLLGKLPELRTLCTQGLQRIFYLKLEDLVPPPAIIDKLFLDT

`C=C(C)[C@]12C[C@@H](C)[C@@]34OC(c5ccccc5)(O[C@@H]1[C@@H]3[C@@H]1O[C@]1(CO)[C@@H](O)[C@@]1(O)[C@H]4C[C@H](C)[C@@H]1OC(=O)c1ccccc1)O2` [genkwanine N]: the “increase of activity of Nurr1 protein” value (16 nM (corresponding to 0.01 ppm)) is 60%.

Take `C=C(C)[C@@]12OC3(/C=C/C=C/CCCCC)O[C@@H]1[C@@H]1[C@@H]4O[C@]4(CO)[C@@H](O)[C@]4(O)C(=O)C(C)=C[C@H]4[C@@]1(O3)[C@H](C)[C@H]2OC(=O)c1ccccc1` [yuanhuacine]: the “increase of activity of Nurr1 protein” value (15 nM (corresponding to 0.01 ppm)) was 70%.

The record behind these values is patent US9034916B2, “Pharmaceutical composition for the prevention or treatment of a neurodegenerative disease, comprising a Daphne genkwa extract or a compound isolated therefrom” (Korea Research Institute of Bioscience and Biotechnology, priority 2011, dated 2015).
